The text below walks through data of ChEMBL document CHEMBL1148751, “Optimization of the indenone ring of indenoisoquinoline topoisomerase I inhibitors” (2007).

A value given as a limit tells only on which side of the number the result lay.

What all share (assay type): functional
In one assay the test system is HOP-62. Put plainly: Cytotoxicity against human HOP62 cells.
The subject of another assay is UACC-62. Put plainly: Cytotoxicity against human UACC62 cells.
In a further assay the test system is HCT-116. Put plainly: Cytotoxicity against human HCT116 cells.
The next assay has as its system DU-145. The experiment in a line: Cytotoxicity against human DU145 cells.
Another assay relates to SN12C. Put plainly: Cytotoxicity against human SN12C cells.
In a further assay the test system is MDA-MB-435. Put plainly: Cytotoxicity against human MDA-MB-435 cells.
The next assay relates to SF-539. The experiment in a line: Cytotoxicity against human SF539 cells.
In another assay the test system is OVCAR-3. The experiment in a line: Cytotoxicity against human OVCAR-3 cells.

Broadly, the GI50 is the concentration at which growth is held to half of that of the control. As to `COc1ccc2c(c1)C(=O)c1c-2n(CCCCl)c(=O)c2cc([N+](=O)[O-])ccc12`, the GI50 with HOP-62 was 0.295 µM; in the assay on UACC-62, below 0.01 µM; with HCT-116 it was 0.794 µM; in the assay with DU-145 it was 0.036 µM; in the assay on SN12C, below 0.01 µM; with MDA-MB-435, 3.24 µM. Further, the concentration for 50% growth inhibition (GI50) is 0.027 µM with SF-539 and 3.39 µM in the assay on OVCAR-3.

In the case of `Cc1ccc2c(c1)C(=O)c1c-2n(CCCBr)c(=O)c2cc([N+](=O)[O-])ccc12`, the GI50 in the assay on HOP-62 was 24.5 µM; in the assay with UACC-62 it was 26.3 µM; in the assay on HCT-116 it was 18.6 µM; in the assay on DU-145, 50.1 µM; with SN12C, 46.8 µM; with MDA-MB-435, above 100 µM. The GI50 in the assay on SF-539 is above 100 µM; with OVCAR-3, 70.8 µM.

For `N#Cc1ccc2c(c1)C(=O)c1c-2n(CCCCl)c(=O)c2cc([N+](=O)[O-])ccc12`, the GI50 was 2.57 µM with HOP-62; 1.12 µM in the assay with UACC-62; 1.82 µM in the assay on HCT-116; 2.75 µM with DU-145; 5.89 µM in the assay with SN12C; above 100 µM with MDA-MB-435. The GI50 in the assay with SF-539 stood at 2.63 µM; with OVCAR-3 it was 8.71 µM.

`Cc1ccc(S(=O)(=O)Oc2ccc3c(c2)C(=O)c2c-3n(CCCBr)c(=O)c3cc([N+](=O)[O-])ccc23)cc1`: the GI50 is 7.59 µM in the assay with HOP-62; 23.4 µM with UACC-62; above 100 µM in the assay on HCT-116; 58.9 µM with DU-145; above 100 µM in the assay on SN12C; above 100 µM in the assay with MDA-MB-435. Moreover, the GI50 came out at 50.1 µM in the assay on SF-539 and 81.3 µM in the assay on OVCAR-3.

As for `CS(=O)(=O)c1ccc2c(c1)C(=O)c1c-2n(CCCBr)c(=O)c2cc([N+](=O)[O-])ccc12`, the GI50 in the assay with HOP-62 worked out at 8.13 µM; in the assay with UACC-62 it was 4.27 µM; in the assay on HCT-116, 7.41 µM; with DU-145 it was 6.31 µM; with SN12C it was 6.92 µM; with MDA-MB-435, 83.2 µM. In addition, the 50% growth inhibitory concentration (GI50) in the assay with SF-539 amounted to 24 µM; with OVCAR-3, 28.8 µM.

Turning to `CCOc1ccc2c(c1)C(=O)c1c-2n(CCCN=[N+]=[N-])c(=O)c2cc([N+](=O)[O-])ccc12`, the GI50 with HOP-62 worked out at 3.02 µM; with UACC-62 it was 2.88 µM; with HCT-116, 1.82 µM; with DU-145, 3.89 µM; in the assay on SN12C, 5.25 µM; with MDA-MB-435, 39.8 µM. In addition, the results for the GI50 in the assay with SF-539 and in the assay with OVCAR-3 were 3.89 µM and 20 µM, respectively.

For `Cc1ccc2c(c1)C(=O)c1c-2n(CCCN=[N+]=[N-])c(=O)c2cc([N+](=O)[O-])ccc12`, the GI50 in the assay with HOP-62 is 72.4 µM; in the assay with UACC-62 it was 30.2 µM; in the assay with HCT-116, 20.4 µM; in the assay with DU-145, above 100 µM; with SN12C, 58.9 µM; with MDA-MB-435 it was above 100 µM. Also, the GI50 in the assay with SF-539 and in the assay on OVCAR-3 was above 100 µM in each case.

Consider `CSc1ccc2c(c1)C(=O)c1c-2n(CCCN=[N+]=[N-])c(=O)c2cc([N+](=O)[O-])ccc12`, for which the GI50 in the assay with HOP-62 was determined as 0.603 µM; in the assay on UACC-62, 0.708 µM; in the assay on HCT-116, 0.776 µM; in the assay on DU-145, 1.15 µM; in the assay with SN12C, 1.05 µM; in the assay with MDA-MB-435 it was 6.03 µM. The concentration for 50% growth inhibition (GI50) with SF-539 stood at 0.891 µM; with OVCAR-3, 3.89 µM.

As to `[N-]=[N+]=NCCCn1c2c(c3ccc([N+](=O)[O-])cc3c1=O)C(=O)c1cc(-c3ccccc3)ccc1-2`, the GI50 in the assay with HOP-62, in the assay with UACC-62, in the assay on HCT-116, in the assay on DU-145, with SN12C and in the assay on MDA-MB-435 was above 100 µM throughout. The GI50 in the assay with SF-539 and in the assay on OVCAR-3 was above 100 µM in each case.

Regarding `COC(=O)c1ccc2c(c1)C(=O)c1c-2n(CCCCl)c(=O)c2cc([N+](=O)[O-])ccc12`, the GI50 in the assay with HOP-62 is 43.7 µM; in the assay on UACC-62 it was 27.5 µM; in the assay with HCT-116 it was 41.7 µM; in the assay with DU-145, 37.2 µM; with SN12C, above 100 µM; with MDA-MB-435, above 100 µM. The GI50 is 83.2 µM with SF-539 and 95.5 µM with OVCAR-3.

Consider `CCOc1ccc2c(c1)C(=O)c1c-2n(CCCBr)c(=O)c2cc([N+](=O)[O-])ccc12`, for which the GI50 in the assay with HOP-62 came to 5.75 µM; with UACC-62, 5.75 µM; with HCT-116, 6.03 µM; in the assay with DU-145 it was 4.27 µM; with SN12C it was 11.7 µM; with MDA-MB-435, 30.9 µM. For the same compound, the GI50 is 5.62 µM with SF-539 and 23.4 µM in the assay on OVCAR-3.

On to `CCc1ccc2c(c1)C(=O)c1c-2n(CCCBr)c(=O)c2cc([N+](=O)[O-])ccc12`, for which the GI50 was 21.4 µM in the assay with HOP-62; 32.4 µM with UACC-62; above 50.1 µM in the assay on HCT-116; above 50.1 µM in the assay with DU-145; above 50.1 µM with SN12C; above 50.1 µM with MDA-MB-435. The GI50 in the assay with SF-539 was 28.2 µM; in the assay on OVCAR-3, above 50.1 µM.

As to `COC(=O)OCc1ccc2c(c1)C(=O)c1c-2n(CCCBr)c(=O)c2cc([N+](=O)[O-])ccc12`, the GI50 in the assay on HOP-62 is 27.5 µM; with UACC-62 it was 33.9 µM; with HCT-116, 81.3 µM; in the assay with DU-145, above 100 µM; in the assay with SN12C, above 100 µM; with MDA-MB-435, above 100 µM. In addition, the 50% growth inhibitory concentration (GI50) in the assay with SF-539 was 56.2 µM; in the assay with OVCAR-3, above 100 µM.

As for `O=C1c2cc(-c3ccccc3)ccc2-c2c1c1ccc([N+](=O)[O-])cc1c(=O)n2CCCBr`, the 50% growth inhibitory concentration (GI50) with HOP-62 was 18.2 µM; in the assay with UACC-62, 49 µM; with HCT-116, above 50.1 µM; in the assay on DU-145 it was above 50.1 µM; in the assay with SN12C, above 50.1 µM; in the assay with MDA-MB-435 it was above 50.1 µM. The GI50 is 16.6 µM in the assay with SF-539 and above 50.1 µM in the assay on OVCAR-3.

With `CCc1ccc2c(c1)C(=O)c1c-2n(CCCN=[N+]=[N-])c(=O)c2cc([N+](=O)[O-])ccc12`, the GI50 in the assay with HOP-62, in the assay with UACC-62, with HCT-116, in the assay on DU-145, in the assay on SN12C and in the assay with MDA-MB-435 was above 50.1 µM throughout. For the same compound, the GI50 in the assay on SF-539 and in the assay with OVCAR-3 was above 50.1 µM each time.

As to `O=C1c2cc(Cl)ccc2-c2c1c1ccc([N+](=O)[O-])cc1c(=O)n2CCCBr`, the GI50 in the assay with HOP-62 came to 2.45 µM; in the assay with UACC-62, 3.47 µM; in the assay with HCT-116 it was 3.47 µM; in the assay on DU-145, 3.98 µM; in the assay with SN12C, 2.51 µM; in the assay on MDA-MB-435, 14.8 µM. In addition, the values for the 50% growth inhibitory concentration (GI50) in the assay on SF-539 and in the assay on OVCAR-3 were 3.72 µM and 36.3 µM, respectively.

Regarding `CSc1ccc2c(c1)C(=O)c1c-2n(CCCBr)c(=O)c2cc([N+](=O)[O-])ccc12`, the GI50 came to 1.05 µM with HOP-62; 3.09 µM in the assay on UACC-62; 2.24 µM in the assay on HCT-116; 3.89 µM in the assay on DU-145; 0.891 µM in the assay with SN12C; 30.9 µM in the assay on MDA-MB-435. Moreover, the values for the GI50 in the assay on SF-539 and in the assay on OVCAR-3 were 4.57 µM and above 100 µM, respectively.
